# In patent US20220281848A1, “PYRAZOLE-SUBSTITUTED PYRROLIDINONES AS HERBICIDES” (FMC Corporation, priority 2019, published 2022):
# Columns and labels:
# Assay type in all cases: in vivo
# [1] = system: velvetleaf (Abutilon theophrasti, ABUTH); test: Test A pre-emergence, velvetleaf; conditions: after 13 d
# In short: (§1)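 Seeds sown in pots of standard soil and sprayed one day later, pre-emergence, at 15.625, 62.5 or 250 g/ha in acetone/water (50:50) with 0.5% Tween 20. Grown in glasshouse at 24/16 °C, 14 h light, 65% humidity. Damage scored after 13 d (0 none, 100 total).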
# [2] = system: velvetleaf (Abutilon theophrasti, ABUTH); test: Test A post-emergence, velvetleaf; conditions: after 13 d
# In short: (§2)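 Plants sown in standard soil were grown 8 d in a glasshouse (24/16 °C day/night, 14 h light, 65% humidity), then sprayed with compound in acetone/water (50:50) with 0.5% Tween 20 at 15.625, 62.5 or 250 g/ha. Damage was scored after 13 d (0 = none, 100 = total).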
# corn (Zea mays, ZEAMX) = test: Test A pre-emergence, corn; conditions: after 13 d
# In short: as §1
# [3] = system: ivy-leaved morning glory (Ipomoea hederacea, IPOHE); test: Test A post-emergence, ivy-leaved morning glory; conditions: after 13 d
# In short: as §2
# [4] = system: redroot pigweed (Amaranthus retroflexus, AMARE); test: Test A post-emergence, redroot pigweed; conditions: after 13 d
# In short: as §2
# wheat = test: Test D pre-emergence, wheat seed treated with a herbicide safener; conditions: 100=total damage, 0=no damage
# Experimental: (§3) A formulation containing 50 g/L of the test chemical was prepared by dissolving the active ingredient in a mixture of organic solvents and emulsifier, details of which are provided in the table. This formulation was then mixed with a small, variable amount of acetone to aid dissolution, before addition of a 0.2% v/v aqueous solution of an adjuvant, as the aqueous diluent, to form an aqueous spray solution which contains a predetermined concentration of the active ingredient.
# (§4) This aqueous spray solution was then sprayed onto plants including maize and wheat that had been seed treated with a herbicide safener, after one day's cultivation (for pre-emergence) or after about 12 days' cultivation (for post-emergence). The plants were grown from seeds sown in standard soil, placed in a glasshouse under controlled conditions (at 24/18° C. or 20/16° C., day/night; 16 h light; 65% humidity). After spray application the plants were then grown in a glasshouse under the same conditions and watered twice daily. After 15 d for post-emergence and 20 DAA for pre-emergence the test was evaluated (100=total damage to plant; 0=no damage to plant).
# [5] = system: barnyardgrass (Echinochloa crus-galli, ECHCG); test: Test A post-emergence, barnyardgrass; conditions: after 13 d
# In short: as §2
# [6] = system: giant foxtail (Setaria faberi, SETFA); test: Test A pre-emergence, giant foxtail; conditions: after 13 d
# In short: as §1
# maize = test: Test D post-emergence, maize seed treated with a herbicide safener
# Experimental: as §3, §4
Compound,damage to plant (100=total damage; 0=no damage) ABUTH ([1]; Pre-Emergence at 15.625 g/ha),damage to plant (100=total damage; 0=no damage) ABUTH ([1]; Pre-Emergence at 62.5 g/ha),damage to plant (100=total damage; 0=no damage) ABUTH ([1]; Pre-Emergence at 250 g/ha),damage to plant (100=total damage; 0=no damage) ABUTH ([2]; Post-Emergence at 15.625 g/ha),damage to plant (100=total damage; 0=no damage) ABUTH ([2]; Post-Emergence at 62.5 g/ha),damage to plant (100=total damage; 0=no damage) ABUTH ([2]; Post-Emergence at 250 g/ha),"damage to plant (100=total damage; 0=no damage) ZEAMX (corn (Zea mays, ZEAMX); Pre-Emergence at 15.625 g/ha)","damage to plant (100=total damage; 0=no damage) ZEAMX (corn (Zea mays, ZEAMX); Pre-Emergence at 62.5 g/ha)","damage to plant (100=total damage; 0=no damage) ZEAMX (corn (Zea mays, ZEAMX); Pre-Emergence at 250 g/ha)",damage to plant (100=total damage; 0=no damage) IPOHE ([3]; Post-Emergence at 15.625 g/ha),damage to plant (100=total damage; 0=no damage) IPOHE ([3]; Post-Emergence at 62.5 g/ha),damage to plant (100=total damage; 0=no damage) IPOHE ([3]; Post-Emergence at 250 g/ha),damage to plant (100=total damage; 0=no damage) AMARE ([4]; Post-Emergence at 15.625 g/ha),damage to plant (100=total damage; 0=no damage) AMARE ([4]; Post-Emergence at 62.5 g/ha),damage to plant (100=total damage; 0=no damage) AMARE ([4]; Post-Emergence at 250 g/ha),"damage to plant, TRZAW (wheat; rate 15, 20 DAA)","damage to plant, TRZAW (wheat; rate 30, 20 DAA)","damage to plant, TRZAW (wheat; rate 60, 20 DAA)","damage to plant, TRZAW (wheat; rate 130, 20 DAA)","damage to plant, TRZAW (wheat; rate 250, 20 DAA)",other results
CCn1nc([C@H]2CN(C)C(=O)[C@@H]2C(=O)Nc2cccc(F)c2F)c2c(F)cccc21 [Compound 7],0,0,0,0,0,0,20,30,90,20,20,0,0,0,0,0,0,0,0,0,"damage to plant, TRZAW (wheat; rate 500, 20 DAA): 0; damage to plant (100=total damage; 0=no damage) ECHCG ([5]; Post-Emergence at 15.625 g/ha): 60; damage to plant (100=total damage; 0=no damage) ECHCG ([5]; Post-Emergence at 62.5 g/ha): 80; damage to plant (100=total damage; 0=no damage) ECHCG ([5]; Post-Emergence at 250 g/ha): 80; damage to plant (100=total damage; 0=no damage) SETFA ([6]; Pre-Emergence at 15.625 g/ha): 70; damage to plant (100=total damage; 0=no damage) SETFA ([6]; Pre-Emergence at 62.5 g/ha): 80; damage to plant (100=total damage; 0=no damage) SETFA ([6]; Pre-Emergence at 250 g/ha): 90; damage to plant (100=total damage to plant; 0=no damage to plant), ZEAMX (maize; rate 130, evaluated after 15 d): 0; damage to plant (100=total damage to plant; 0=no damage to plant), ZEAMX (maize; rate 250, evaluated after 15 d): 0; damage to plant (100=total damage to plant; 0=no damage to plant), ZEAMX (maize; rate 500, evaluated after 15 d): 10"
CN1CC(c2cc(C(F)(F)F)n(C)n2)C(C(=O)Nc2cccc(F)c2C(F)(F)F)C1=O (racemic) [Compound 19],0,0,0,0,0,0,0,0,20,0,0,0,0,0,30,0,0,0,0,10,"damage to plant, TRZAW (wheat; rate 500, 20 DAA): 60; damage to plant (100=total damage; 0=no damage) ECHCG ([5]; Post-Emergence at 15.625 g/ha): 60; damage to plant (100=total damage; 0=no damage) ECHCG ([5]; Post-Emergence at 62.5 g/ha): 70; damage to plant (100=total damage; 0=no damage) ECHCG ([5]; Post-Emergence at 250 g/ha): 80; damage to plant (100=total damage; 0=no damage) SETFA ([6]; Pre-Emergence at 15.625 g/ha): 80; damage to plant (100=total damage; 0=no damage) SETFA ([6]; Pre-Emergence at 62.5 g/ha): 90; damage to plant (100=total damage; 0=no damage) SETFA ([6]; Pre-Emergence at 250 g/ha): 90; damage to plant (100=total damage to plant; 0=no damage to plant), ZEAMX (maize; rate 130, evaluated after 15 d): 0; damage to plant (100=total damage to plant; 0=no damage to plant), ZEAMX (maize; rate 250, evaluated after 15 d): 0; damage to plant (100=total damage to plant; 0=no damage to plant), ZEAMX (maize; rate 500, evaluated after 15 d): 30"
